We go through one compound from patent US8013047B2, “Oligo- and poly-carbonates terminated with silicon containing groups as surface modifiers” (priority 2005, dated 2011).

Series [1] deals with Staphylococcus aureus ATCC 6538. Put plainly: Adhesion of microbes onto polycarbonate extrusion sheets (microtiterplate immunological assay). Format: cell-based. The note with it: 5% Tinuvin 1577 alone in polycarbonate sheet; residual adhesion relative to control = 100%; 60 min incubation. As for the experimental part: (§1) A polycarbonate powder [Makrolon 3108 FBL (RTM) from Bayer] is dried in a vacuum oven for eight hours at 120° C. Appropriate amounts of each compound of the formula I is added to the dried polycarbonate powder to obtain formulations containing up to 10% by weight of the compound of the formula I. The formulations are mixed in a Grindo Mix GM 200 and compounded to pellets in a twin-screw extruder (Haake DS16-L/D25 from Thermo Electron Corporation) and further extruded to sheets with a width of 110 mm and thickness of 0.2 mm using a single-screw extruder equipped with a flat die (Collin CR-136/350). The processing temperature is around 280° C. All produced sheets have a transparent visual appearance.
In order to measure the reduced adhesion of microbes onto polymer surfaces the following testing procedure is applied:
The test system is microtiterplate based and is conducted according to the method described in Nature Medicine Vol. 6, No. 8, 1053-1056. Samples equipped with active compounds and untreated control samples are prepared to obtain a same sample size of max. 7×4 mm. […] The microbial cells adhering to the pieces are detected in an immunological assay using specific antibodies against the test strain, which are then detected […]. […]

Series [2] can be described thus: Contact angle of extrusion tapes, compounds as bulk material or additive (sessile drop, water). Format: physicochemical. The note with it: 5% Tinuvin 1577 in 95% Makrolon 3108 FBL, extrusion tape. As for the experimental part: Appropriate amounts of each compound of the formula I are dried in a vacuum oven for eight hours at 120° C. They are extruded in a twin-screw extruder (MiniLab extruder from Thermo Electron Corporation) equipped with a flat die. In this way, tapes are produced with a width of 5 mm and a thickness of around 0.5 mm. The processing temperature is around 280° C. All produced tapes have a transparent visual appearance. The contact angle of the produced tapes are measured with a Dataphysics OCA 30 contact angle device, using the sessile drop method and water as measuring liquid.

Series [3] is described as follows: Contact angle of polycarbonate extrusion sheets (sessile drop, water). Format: physicochemical. The following applies: 5% Tinuvin 1577 alone in polycarbonate extrusion sheet. The procedure:
as §1
The surface properties were evaluated by measuring the contact angle of the polycarbonate sheets described in Example 16 with a Dataphysics OCA 30 contact angle device, using the sessile drop method and water as measuring liquid.

Take `CCCCCCOc1ccc(-c2nc(-c3ccccc3)nc(-c3ccccc3)n2)c(O)c1` [Tinuvin 1577]: in series [1], the “Adhesion of Staphylococcus aureus ATCC 6538 on polycarbonate in %” value worked out at 104%. Besides, the “Contact angle (°)” value in series [2] and in series [3] was 86 ° in each case.
